Experiments:
[1] = tested on: chondrocytes articulaires humains; assay: RT-PCR mRNA expression in IL-1β-stimulated human articular chondrocytes; assay type: cell-based; details: IL-1β 1ng/mL, 48h, increasing doses of tolcapone, mRNA normalised to RPL13A
Text: Les cellules ont été obtenus à partir de déchets opératoires selon la réglementation en vigueur (protocole approuvé par le comité de protection des personnes (CPP) Nord-Ouest III). Après la signature du consentement libre et éclairé par les patients, des têtes fémorales, des membranes synoviales et de la moelle osseuse sont récupérées à l'issue d'opération d'arthroplastie de la hanche chez des patients arthrosiques.
Les têtes fémorales sont disséquées et des copeaux de cartilages sont réalisés. Les chondrocytes sont libérés par digestion à la pronase de type XIV (2 mg/ml pendant 15 minutes; Sigma), suivie d'une digestion à la collagénase de type II (2 mg/ml pendant une nuit; Gibco). Les cellules sont ensuite ensemencées à 4×10^4 cellules/cm^2 dans du milieu Eagle modifié de Dulbecco (DMEM) supplémenté avec 10% de sérum de veau foetal (SVF) avec un cocktail d'antibiotiques. Elles sont ensuite incubées à 37°C dans une atmosphère humidifiée contenant 5% de CO2.
Pour les trois types cellulaires, les cellules ont été amplifiées dans une enceinte humide à 37°C sous 5% de CO2. Les milieux de culture sont changés 2 à 3 fois par semaine. Un test mycoplasme a été réalisé afin de vérifier qu'elles ne sont pas contaminées. […]

[2] = tested on: modèle murin d'arthrose (MIA); assay: Von Frey filament test (mechanical allodynia) in murine osteoarthritis model (MIA); assay type: in vivo, souris C57BL7; details: intra-articular injections at 1, 2, 3 and 4 weeks after induction of osteoarthritis; arthritic paw relative to contralateral paw; figure 4B
Text: (§1) Cette étude a été autorisée par le ministère de l'Enseignement Supérieur, de la Recherche et de l'Innovation après avis favorable du comité d'éthique locale, CENOMEXA (agrément n°B14118015). L'étude est réalisée au sein d'une animalerie agrée (UMS-CYCERON). Des souris C57BL7 mâles, âgées de 10 semaines ont été utilisés. Les souris étaient placées par cage de 8, en cycle inversé, nourriture et eau disponible ad libidum. L'état de santé de chaque souris était évalué quotidiennement.
(§2) Les injections intra-articulaires (MIA ou tolcapone) ont également été réalisées sous anesthésie générale. Après un repérage clinique du ligament patellaire, les injections sont faites par voie intra articulaire du genou après passage du ligament patellaire à l'aiguille 27 Gauge.
L'allodynie (douleur déclenchée pour un stimulus qui est normalement indolore) mécanique est évaluée par le test des filaments de Von Frey (BIOSEB In Vivo Research Instruments®). Ce test repose sur le principe selon lequel lorsque l'extrémité du filament (de longueur et de diamètre donnés) est appliquée perpendiculairement, la force exercée par le filament augmente jusqu'à ce que le filament fléchisse. Au-delà, la force exercée par le filament reste constante. Pour ce test, les souris sont placées dans une cage individuelle, sur une grille. Une période d'habituation de 30 minutes était requise avant le début du test. […]

[3] = tested on: modèle murin d'arthrose (MIA); assay: Knee histology (safranine-O / Fast Green) in murine osteoarthritis model (MIA); assay type: in vivo, souris C57BL7; details: intra-articular injections at 1, 2, 3 and 4 weeks after induction; histology at 8 weeks; versus MIA+vehicule; figure 5
Text: as §1, §2
Les articulations sont placées dans une solution de fixation (formaldehyde 37%, PBS) pendant 3 jours, puis décalcifié à l'aide d'Osteosoft pendant 48h. Ensuite, les articulations sont conservées à -80°C dans l'Optimal Cutting Temperature compound (OCT). Des coupes de 10 µm d'épaisseur ont été réalisées à -25°C à l'aide d'un Cryostat (CM 3050 S, Leica BIOSYSTEMS, France), puis montées sur des lames de microscopies SuperFrost®. Les lames sont ensuite colorées au Fast Green puis à la safranine-O. La safranine-O permet de mettre en évidence les composants du cartilage articulaire. […]

## Cc1ccc(C(=O)c2cc(O)c(O)c([N+](=O)[O-])c2)cc1 [tolcapone]
[1]; figure 3A
  expression de gènes impliqués dans le catabolisme (tel que MMP13): réduit notamment l'expression de gènes impliqués dans le catabolisme (tel que MMP13)
[1]; figure 3B
  expression de gènes impliqués dans l'inflammation (tel que l'IL-6): réduit notamment l'expression
[2]
  douleur induite (Von Frey): réduit nettement la douleur induite
[3]
  dommages articulaires (étude histologique): réduit les dommages articulaires
  dégradation du cartilage (étude histologique): très fortement limité la dégradation du cartilage
